Target: T1, hERG channel (Homo sapiens, UniProt Q12809)
T1 construct: host or cells: HEK293
Assay: hERG channel test - manual patch clamp assay
Type: cell-based
Conditions: HEK293 cells stably transfected with hERG, tail current
Protocol: 4.7 hERG Channel Test—Manual Patch Clamp Assay
The aim of this assay is to determine the in-vitro effects of a test compound on hERG current ([…]) expressed in Human Embryonic Kidney (HEK) cells (evaluation of the blocking profile of test substance on the IKr-like potassium current mediated by hERG channel stably transfected in a human cell line), which is linked to cardiac safety.
The test substance is dissolved in pure dimethylsulfoxide (DMSO) by cold stirring to give a stock solution concentrated 333-fold as compared with the highest concentration to be tested. This stock solution is used to prepare the other stock solutions in DMSO. Each stock solution is used to prepare the solutions containing the final concentrations tested by dilution in extracellular solution (0.1, 1, 10 and 100 μM). Final concentration of DMSO should not not exceed 0.3%.
All formulations are prepared in glass containers.
If a slight opalescence persists at the highest concentration, a 50 μM (instead of 100 μM) concentration is tested.
DMSO diluted in extracellular solution (at the different concentrations used in the final test substance solutions) is used as vehicle.
The extracellular solution is constituted as follows (mM): K-gluconate: 4 mM/Na-gluconate: 145 mM/Mg-gluconate: 2 mM/Ca-gluconate: 3.5 mM/HEPES: 5 mM/glucose: 5 mM/mannitol: 20 mM. The pH is adjusted with NaOH to 7.40±0.05.
Human embryonic kidney (HEK293) cells are stably transfected with the hERG clone (Creacell) and are maintained at 37° C. in a 5% CO2/95% air incubator. Cells used for the study are transferred to an experimental chamber of approximately 2 mL which is maintained at a temperature of 35±0.5° C. by a thermoelectric device (Harvard Apparatus: Type TC-344B) and mounted on the platform of an inverted microscope (Olympus: Type IX-51 or Leica DMI3000 B). Cells are continuously superfused with Tyrode's solution constituted as follows (mM): NaCl: 145/KCl: 4/HEPES: 5/glucose: 5/CaCl2:1/MgCl2: 1.
Ionic currents from hERG-transfected cells are measured using the whole cell configuration of the patch clamp technique. Glass pipettes are pulled from borosilicate glass by a vertical puller (Sutter Instruments: Type P30). Pipette tip resistance is approximately 1.5 to 3.5 MΩ when filled with internal solution constituted as follows (mM): K-gluconate: 145/Mg-gluconate: 1/EGTA: 2/HEPES:5/K2ATP: 2.
The pipettes are connected to the input stage of a patch-clamp amplifier (Axon Instruments: Multiclamp 700B-1). Stimulation, data recording and analysis are performed using specialized Axon Instruments software (pClamp 9.2.0. or pClamp 10.3.0.2).
After rupture of the cell membrane (entering whole-cell mode), cells are stimulated every 10 seconds using the following protocol: 500 ms pulse to +10 mV from a holding potential of −80 mV followed by a 500 ms pulse to −40 mV during which tail current is measured.
Once the current under control conditions is stable, recordings are taken before (control) and after addition of the test substance. The effect of the test substance on tail current is monitored continuously until steady-state is reached. The peak tail current amplitude is averaged for 3 stimuli.
The following parameters are measured: • Cell capacitance (pF). • Peak tail current amplitude (pA).
Peak tail current measurements are normalized using the cell capacitance as an index of cell surface.
The cells will be considered as valid if cell capacitance <80 pF, access resistance <20 MΩ and holding current >−200 pA.
Results are expressed as absolute values and as percentage change from control (percentage of tail current inhibition).
The test substance is studied at 4 ascending concentrations on 3 hERG-transfected cells.
The concentration of test substance inducing 50% of inhibition (IC50) of tail current is determined, if possible, from each individual concentration-response curve. The equation is of the following form: […]

T1 sequence (Q12809 whole entry): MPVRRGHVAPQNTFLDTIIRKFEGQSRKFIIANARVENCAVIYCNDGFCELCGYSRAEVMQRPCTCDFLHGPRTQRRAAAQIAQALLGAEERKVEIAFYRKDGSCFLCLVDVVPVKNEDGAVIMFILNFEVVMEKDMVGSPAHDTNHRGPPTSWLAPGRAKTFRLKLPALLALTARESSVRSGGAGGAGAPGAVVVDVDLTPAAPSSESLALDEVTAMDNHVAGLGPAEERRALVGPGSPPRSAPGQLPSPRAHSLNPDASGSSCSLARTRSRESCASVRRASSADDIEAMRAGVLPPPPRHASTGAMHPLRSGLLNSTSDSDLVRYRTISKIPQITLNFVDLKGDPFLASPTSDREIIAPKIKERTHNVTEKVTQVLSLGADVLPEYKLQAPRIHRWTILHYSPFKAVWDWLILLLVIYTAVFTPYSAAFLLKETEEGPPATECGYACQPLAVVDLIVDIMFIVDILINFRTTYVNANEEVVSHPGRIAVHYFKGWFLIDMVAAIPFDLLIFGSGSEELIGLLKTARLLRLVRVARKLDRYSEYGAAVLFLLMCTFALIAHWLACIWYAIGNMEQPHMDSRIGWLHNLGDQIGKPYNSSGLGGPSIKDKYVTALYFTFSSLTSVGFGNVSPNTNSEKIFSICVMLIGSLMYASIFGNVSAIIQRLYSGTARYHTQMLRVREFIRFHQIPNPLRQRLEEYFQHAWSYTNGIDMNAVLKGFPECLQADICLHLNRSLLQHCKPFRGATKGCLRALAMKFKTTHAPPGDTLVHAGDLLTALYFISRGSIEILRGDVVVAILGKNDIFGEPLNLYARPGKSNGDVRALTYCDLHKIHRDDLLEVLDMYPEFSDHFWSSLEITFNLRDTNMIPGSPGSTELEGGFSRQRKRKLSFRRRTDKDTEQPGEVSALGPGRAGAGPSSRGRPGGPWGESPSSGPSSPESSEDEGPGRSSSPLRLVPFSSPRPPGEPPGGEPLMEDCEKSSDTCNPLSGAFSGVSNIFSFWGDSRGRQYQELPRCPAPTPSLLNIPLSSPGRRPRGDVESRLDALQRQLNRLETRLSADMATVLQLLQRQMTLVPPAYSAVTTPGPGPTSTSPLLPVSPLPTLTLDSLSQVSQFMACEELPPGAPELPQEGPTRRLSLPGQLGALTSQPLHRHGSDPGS

Row | SMILES | hERG Manual Patch Clamp Single dose PIN (10 μM) [%] | IC50 [µM]
1 | CNC(=O)c1cc2nc(CCC(C)(C)O)cn2cc1NC(=O)c1cccc(C(F)(F)F)n1 [Compound 2, 2-(3-hydroxy-3-methyl-butyl)-N-methyl-6-[[6-(trifluoromethyl)pyridine-2-carbonyl]amino]imidazo[1,2-a]pyridine-7-carboxamide] | −44.7 | 19.2
2 | COc1cc2nc(CCC(C)(C)O)cn2cc1NC(=O)c1cccn(C2CC2)c1=O [Compound 5, 1-cyclopropyl-N-[2-(3-hydroxy-3-methyl-butyl)-7-methoxy-imidazo[1,2-a]pyridin-6-yl]-2-oxo-pyridine-3-carboxamide] | −25 | –
3 | COc1cc2nc(CCC(C)(C)O)cn2cc1NC(=O)c1cccn(C(F)F)c1=O [Compound 12, 1-(difluoromethyl)-N-[2-(3-hydroxy-3-methyl-butyl)-7-methoxy-imidazo[1,2-a]pyridin-6-yl]-2-oxo-pyridine-3-carboxamide] | −76.3 | 3.05
4 | CC(C)(O)CCc1cn2cc(NC(=O)c3cccc(C(F)(F)F)n3)c(C(N)=O)cc2n1 [Compound 31, 2-(3-hydroxy-3-methyl-butyl)-6-[[6-(trifluoromethyl)pyridine-2-carbonyl]amino]imidazo[1,2-a]pyridine-7-carboxamide] | −46.7 | 16.3
5 | CCOc1c(NC(=O)c2cccn(C3CC3)c2=O)cn2cc(CCC(C)(C)O)nc2c1F [Compound 37, 1-cyclopropyl-N-[7-ethoxy-8-fluoro-2-(3-hydroxy-3-methyl-butyl)imidazo[1,2-a]pyridin-6-yl]-2-oxo-pyridine-3-carboxamide] | −56.3 | 6.99
6 | CCOc1c(NC(=O)c2cccn(C)c2=O)cn2cc(CCC(C)(C)O)nc2c1F [Compound 38, N-[7-ethoxy-8-fluoro-2-(3-hydroxy-3-methyl-butyl)imidazo[1,2-a]pyridin-6-yl]-1-methyl-2-oxo-pyridine-3-carboxamide] | −30.0 | –
7 | CCOc1c(NC(=O)c2cccn(C3CC3)c2=O)cn2cc(CCS(C)(=O)=O)nc2c1F [Compound 39, 1-cyclopropyl-N-[7-ethoxy-8-fluoro-2-(2-methylsulfonylethyl)imidazo[1,2-a]pyridin-6-yl]-2-oxo-pyridine-3-carboxamide] | −39.7 | > 10
8 | COc1c(NC(=O)c2cccn(C3CC3)c2=O)cn2cc(CCC(C)(C)O)nc2c1F [Compound 42, 1-cyclopropyl-N-[8-fluoro-2-(3-hydroxy-3-methyl-butyl)-7-methoxy-imidazo[1,2-a]pyridin-6-yl]-2-oxo-pyridine-3-carboxamide] | −12 | > 92.3
9 | CC(C)(O)CCc1cn2cc(NC(=O)c3cccc(C(F)(F)F)n3)c(C(=O)NCC(F)F)cc2n1 [Compound 48, N-(2,2-difluoroethyl)-2-(3-hydroxy-3-methylbutyl)-6-(6-(trifluoromethyl)picolinamido)imidazo[1,2-a]pyridine-7-carboxamide] | −20.5 | –
10 | CCNC(=O)c1cc2nc(CCC(C)(C)O)cn2cc1NC(=O)c1cccc(C(F)(F)F)n1 [Compound 49, N-ethyl-2-(3-hydroxy-3-methylbutyl)-6-(6-(trifluoromethyl)picolinamido)imidazo[1,2-a]pyridine-7-carboxamide] | −17 | –
